# Measured values taken from patent publication US12403326B2, “System for corneal cross-linking and correcting vision by using LED contact lens and eye dye” (PHI BIOMED INC., priority 2019, dated 2025).
# Key:
# bovine cornea [1] = experiment: Corneal bonding of wounded cornea, intraocular pressure by tonometer after 532-nm laser; settings: wounded bovine eye; dropped at 5-minute intervals for 30 minutes, 532-nm laser for 30 minutes
# Experimental: After approximately […] wound was made in the bovine cornea, the pressure in the bovine eye was measured using a tonometer. Afterward, each of a hyaluronic acid-Rose Bengal conjugate solution and a Rose Bengal solution was dropped on the wound-induced region at 5-minute intervals for 30 minutes, and a 532-nm laser was irradiated for 30 minutes to induce crosslinking between corneal collagen to bond. Likewise, an intraocular pressure was measured after bonding by a laser using a tonometer.
# By comparing the intraocular pressure before and after bonding, it was confirmed whether bonding was formed.
# bovine cornea [2] = experiment: Corneal permeability by two-photon image analysis; format: in vitro ADME; settings: dropped on bovine cornea at 5-minute intervals for 30 minutes; two-photon imaging
# Experimental: The hyaluronic acid-Rose Bengal conjugate synthesized in Example 1 was dropped on the bovine cornea at 5-minute intervals for 30 minutes. As a comparative group, a pure Rose Bengal solution was dropped in the same manner as described above.
# Afterward, two-photon image analysis was performed by extracting the cornea from the bovine cornea.
# bovine cornea [3] = experiment: Corneal thickness from H&E stained corneal tissue after collagen crosslinking; settings: decreased from 1000 μm; dropped for 30 minutes, 532-nm laser for 30 minutes; H&E images
# Experimental: (§1) Hyaluronic acid or a hyaluronic acid-Rose Bengal conjugate were dropped on the bovine cornea at 5-minute intervals for 30 minutes, and a 532-nm laser was irradiated for 30 minutes to induce crosslinking between corneal collagen. Afterward, corneal tissue was fixed with formalin, and stained with H&E, followed by observation under a microscope.
# bovine cornea [4] = experiment: Corneal strength, Young's modulus using Instron equipment; settings: bovine cornea after collagen crosslinking; untreated Control 1.76
# Experimental: as §1
# In addition, the bovine cornea in which collagen crosslinking was induced was extracted, and then the Young's modulus of the cornea was measured using Instron equipment to analyze the strength of the cornea.
smiles,measurement,setting,value
O=C([O-])c1c(Cl)c(Cl)c(Cl)c(Cl)c1-c1c2cc(I)c(=O)c(I)c-2oc2c(I)c([O-])c(I)cc12.[Na+].[Na+] [Rose Bengal],increase in maximum intraocular pressure compared to not treated,bovine cornea [1],approximately two
same,depth up to which fluorescence was shown in the cornea (corneal permeability),bovine cornea [2],400 μm
same,corneal thickness after treatment,bovine cornea [3],750 μm
same,Young's modulus of the cornea,bovine cornea [4],2.75
